Measured values published in paper PMC3210610, “Studies on Synthesis and Structure-Activity Relationship (SAR) of Derivatives of a New Natural Product from Marine Fungi as Inhibitors of Influenza Virus Neuraminidase” (Marine Drugs, 2011).

Legend:
[1] = target: neuraminidase (NA) of A/Guangdong/05/2009 (H1N1) (Influenza A virus (A/Managua/5248.03/2009(H1N1)), UniProt E0V7D1); details: 0.15 mM 4-MUNANA, MES pH 6.5, 4 mM CaCl2, 37 °C, 1 h preincubation; Figure 2 legend says chemiluminescence assay
[2] = target: neuraminidase (NA) of A/GuangdongSB/01/2009 (H1N1) (Influenza A virus (A/Managua/5248.03/2009(H1N1)), UniProt E0V7D1); details: 0.15 mM 4-MUNANA, MES pH 6.5, 4 mM CaCl2, 37 °C, 1 h preincubation; Figure 2 legend says chemiluminescence assay

Work on `C=CCOc1cc(C=O)ccc1O` [compound 15, 3-(allyloxy)-4-hydroxybenzaldehyde] yielded an IC50 [1] of 25.1 µM and an IC50 [2] of 27 µM.
